In patent US20240336591A1, “ORGANIC PYRIDINE-PYRAZOLE COMPOUNDS AND THEIR USES” (priority 2021, published 2024):
“Also recorded” adds a separate entry of the source.

Tests used:
Human PDE10A2 [1] = molecular target: T1, Human PDE10A2 (Homo sapiens (Human), UniProt Q9Y233); assay: Biochemical human PDE10A activity assay - PDE10A2 Phosphate Sensor Assay; details: cGMP 3 μM substrate, PDE10A2 0.25 nM
Experimental: Biochemical Human PDE10A Activity Assay—PDE10A2 Phosphate Sensor Assay
Semi Log compound dilutions starting at a final concentration of 50 μM were dispensed into a black 384 well plate alongside, DMSO and an Inhibited control using the Echo Acoustic dispenser. […] Data was analysed using a 4-parameter fit.

Human PDE10A2 [2] = molecular target: T1, Human PDE10A2; assay: Cell based human PDE10A activity assay - cAMP HTRF assay in HEK 293 rhPDE10A2 cell line
Experimental: Semi log compound dilutions starting at a final concentration of 10 μM were dispensed into a white 384 well plate, alongside DMSO and an Inhibited control using the Tecan D300e digital dispenser. HEK 293 cells overexpressing recombinant human PDE10A2 were seeded on top of the compounds at 2500 cells/well in a volume 5 μL/well. The plate was incubated at room temperature for 60 minutes. To induce endogenous cAMP, 5 μL/well of Forskolin at a final assay concentration of 10 μM was added to the plate. The plate was incubated at room temperature for a further 45 minutes. cAMP HTRF detection reagents were added, and the plate was incubated for 60 minutes at room temperature. […] Data was analysed using a 4-parameter fit.

[3] = system: inflamed colonic mucosa from ulcerative colitis patients; assay: Ex-vivo colon biopsy culture from ulcerative colitis patients, cytokine release (Protocol 1); format: cell-based, human
Experimental: The effect of selective PDE10A inhibition was tested on inflamed colonic mucosa from ulcerative colitis patients taken during routine endoscopy (Protocol 1 detailed below). These samples retain a disease phenotype in ex-vivo culture, secrete high basal levels of inflammatory cytokines, and represent a highly relevant and translational disease model. The effect of the PDE10A inhibitors on levels of the inflammatory cytokines IL-6 and IL-8 released from these tissue samples were measured. Both IL-6 and IL-8 are key regulators in ulcerative colitis pathology and their levels correlate with disease severity (Waldner M J et al. Master regulator of intestinal disease: IL-6 in chronic inflammation and cancer development. Semin Immunol. 26(1), 75-9 (2014); Bernardo D et al. IL-6 promotes immune responses in human ulcerative colitis and induces a skin-homing phenotype in the dendritic cells and T-cells they stimulate. Eur J Immunol. 42(5), 1337-53 (2012); Pearl D S, Cytokine mucosal expression in ulcerative colitis, the relationship between cytokine release and disease activity. J Crohns Colitis. 7(6), 481-9 (2013)).
These colon biopsies retain an inflammatory phenotype and secrete high levels of inflammatory cytokines in ex-vivo culture.
(§1) Biopsy tissue was obtained from inflamed colonic mucosa from ulcerative colitis or Crohn's disease patients during routine endoscopy. Ex-vivo biopsy cultures for the analysis of inflammatory cytokine biomarkers were run as previously described (Vossenkämper A. et al. A CD3- specific antibody reduces cytokine production and alters phosphoprotein profiles in intestinal tissues from patients with inflammatory bowel disease. Gastroenterology, 147, 172-183 (2014)). Biopsies were incubated in organ culture for 24 h with the addition of positive control compounds, or specific PDE10A inhibitors. Supernatants collected at the end of the experiment were snap-frozen and stored at −70° C. For the measurement of cytokines, the frozen culture supernatants were thawed and analysed for levels of the inflammatory cytokines using Luminex cytokine assay kits (R&D Systems) and an R&D Systems MAGPIX® analyser. Mean values ±SDs were calculated for the levels of spontaneous cytokine production measured in biopsy culture supernatants from each treatment group.

[4] = Determination of CNS penetration in vivo (brain to plasma partitioning, Kpuu); design: species or system Male Sprague Dawley Rats; details: male, Sprague-Dawley, brain / plasma (unbound); rat, IV, 1 mg/kg, 10-30 min post dose
[5] = system: inflamed colonic mucosa from pharmacotherapy treatment-refractory ulcerative colitis patients; assay: Ex-vivo culture of inflamed colon tissue from surgical resection of treatment-refractory UC patients, TNFα release (Protocol 2); format: cell-based, human; details: 1 μM; UC donors 4 and 5; with SEB; about 18 hours; vs DMSO vehicle
[6] = system: inflamed colonic mucosa from Crohn's Disease patients; assay: Ex-vivo colon biopsy culture from Crohn's disease patients, cytokine release (Protocol 1); format: cell-based, human; details: 0.1 uM; 2 independent CD patient biopsies; vs DMSO vehicle; listed as PF-2545920
Experimental: In addition, we tested the effect of selective PDE10A inhibition using 0.1 uM PF-2545920 on inflamed colonic mucosa from Crohn's Disease patients taken during routine endoscopy (Protocol 1).
as §1

other PDE family members = details: read-out: IC50s for other PDE family members; literature value; cited from earlier work
[7] = system: isolated human neutrophil; assay: In vitro assay of IL-8 neutrophil activation; format: cell-based
[8] = 100 nM, UC donor 3, vs vehicle control
[9] = UC donors 1 and 2, PF-02545920 0.1 μM and 1 μM, TAK-063 1 uM, 24 h, vs DMSO vehicle

T1 sequence (Q9Y233 267-1055): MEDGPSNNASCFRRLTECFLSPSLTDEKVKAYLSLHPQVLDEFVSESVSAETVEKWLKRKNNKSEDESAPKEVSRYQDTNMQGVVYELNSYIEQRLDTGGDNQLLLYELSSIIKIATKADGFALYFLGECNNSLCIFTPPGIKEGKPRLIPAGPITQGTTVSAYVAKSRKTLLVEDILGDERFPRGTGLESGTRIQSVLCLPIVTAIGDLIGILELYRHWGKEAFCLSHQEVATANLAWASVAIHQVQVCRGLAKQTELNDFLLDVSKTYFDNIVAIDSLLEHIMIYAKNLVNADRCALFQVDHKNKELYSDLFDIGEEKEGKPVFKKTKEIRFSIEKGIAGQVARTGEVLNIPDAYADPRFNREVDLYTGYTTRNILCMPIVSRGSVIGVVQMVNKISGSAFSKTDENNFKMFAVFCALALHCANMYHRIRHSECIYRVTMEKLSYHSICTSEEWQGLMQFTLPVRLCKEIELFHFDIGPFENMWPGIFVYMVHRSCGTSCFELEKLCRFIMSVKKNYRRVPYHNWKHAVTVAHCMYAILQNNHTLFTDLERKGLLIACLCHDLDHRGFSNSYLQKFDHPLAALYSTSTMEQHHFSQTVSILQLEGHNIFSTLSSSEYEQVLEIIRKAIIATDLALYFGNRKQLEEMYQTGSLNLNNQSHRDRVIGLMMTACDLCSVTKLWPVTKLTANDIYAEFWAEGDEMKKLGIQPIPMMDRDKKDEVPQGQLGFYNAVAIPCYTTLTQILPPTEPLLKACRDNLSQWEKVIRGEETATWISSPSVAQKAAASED

SMILES	PDE10A2 Phosphate Sensor Enzyme Assay (pIC50) (Human PDE10A2 [1])	IC50 (Human PDE10A2 [2]) [nM]	secreted levels of IL-6 [3, 8]	secreted levels of IL-8 [3, 8]	Kp uu [4]	secreted levels of TNFα [5]	secreted levels of IL-6 [6]	secreted levels of IL-8 [6]	IC50 (other PDE family members) [nM]	secreted levels of IL-6 [3, 9]	secreted levels of IL-8 [3, 9]	IL-8 induced neutrophil activation [7]
Cn1cc(-c2ccncc2)c(-c2ccc(OCc3nc4cccnc4cc3C(=O)N=S(C)(C)=O)cc2)n1 [Example 19, N-[Dimethyl(oxo)-λ6-sulfanylidene]-2-[[4-[1-methyl-4-(4-pyridyl)pyrazol-3-yl]phenoxy]methyl]-1,5-naphthyridine-3-carboxamide]	9.43	5.37	significantly reduce	significantly reduce	0.05							
Cn1cc(-c2ccncc2)c(-c2ccc(OCc3nc4ccccn4c3C(=O)N=S(C)(C)=O)cc2)n1 [Example 20, N-[Dimethyl(oxo)-λ6-sulfanylidene]-2-[[4-[1-methyl-4-(4-pyridyl)pyrazol-3-yl]phenoxy]methyl]imidazo[1,2-a]pyridine-3-carboxamide]	9.76	6.76	significantly reduce	significantly reduce	0.11							
Cn1cc(-c2ccncc2)c(-c2ccc(OCc3ccc4ccccc4n3)cc2)n1 [PF-02545920]						inhibiting; also recorded: significantly reduced	inhibits; also recorded: significantly reduced	inhibits; also recorded: significantly reduced	> 1000	inhibiting; also recorded: significantly reduced	inhibiting; also recorded: significantly reduced	dose dependently inhibited
COc1cn(-c2ccc(-n3cccn3)cc2F)nc(-c2ccnn2-c2ccccc2)c1=O [TAK-063, 1-[2-fluoro-4-(1H-pyrazol-1-yl)phenyl]-5-methoxy-3-(1-phenyl-1H-pyrazol-5-yl)pyridazin-4(1H)-one, reference compound]									> 5000	inhibiting; also recorded: significantly reduced	inhibiting; also recorded: significantly reduced	
